Source: ChEMBL document CHEMBL3045223, “Synthesis, nematicidal and antimicrobial properties of Bis-[4-methoxy-3-[3-(4-fluorophenyl)-6-(4-methylphenyl)-2(aryl)-tetrahydro-2H-pyrazolo[3,4-d]thiazol-5-yl]phenyl]methanes” (2009)
In brackets after ≈: the same amount, converted by molar mass. Activity calls are given as the source filed them. The calls are words filed in the database; no cut-off is given here.

Key:
Format in all cases: functional
[1] = test system: Trichophyton mentagrophytes; assay: Antifungal activity against Trichophyton mentagrophytes IFO 40996 assessed as growth inhibition at 300 ug/disc at 37 degC for 48 hr; details: for zone of inhibition at 300 µg/disc: IFO 40996, 48 h, read-out: IZ
Klebsiella aerogenes [2] = assay: Antibacterial activity against Enterobacter aerogenes MTCC 39 assessed as inhibition zones at 300 ug/disk at 37 degC for 24 hr; details: MTCC 39, 24 h, read-out: IZ
Pseudomonas aeruginosa [3] = assay: Antibacterial activity against Pseudomonas aeruginosa MTCC 741 assessed as inhibition zones at 300 ug/disk at 37 degC for 24 hr; details: MTCC 741, 24 h, read-out: IZ
Candida albicans [4] = assay: Antifungal activity against Candida albicans ATCC 10231 assessed as growth inhibition at 300 ug/disk at 37 degC for 48 hr; details: for zone of inhibition at 300 µg/disc: ATCC 10231, 48 h, read-out: IZ
[5] = test system: Lysinibacillus sphaericus; assay: Antibacterial activity against Lysinibacillus sphaericus MTCC 11 assessed as growth arrest at 37 degC for 24 hr; details: MTCC 11, 24 h
Klebsiella aerogenes [6] = assay: Antibacterial activity against Enterobacter aerogenes MTCC 39 assessed as growth arrest at 37 degC for 24 hr; details: MTCC 39, 24 h
Pseudomonas aeruginosa [7] = assay: Antibacterial activity against Pseudomonas aeruginosa MTCC 741 assessed as growth arrest at 37 degC for 24 hr; details: MTCC 741, 24 h
Staphylococcus aureus [8] = assay: Antibacterial activity against Staphylococcus aureus MTCC 96 assessed as growth arrest at 37 degC for 24 hr; details: MTCC 96, 24 h
Trichophyton rubrum [9] = assay: Antifungal activity against Trichophyton rubrum IFO 9185 assessed as growth inhibition at 37 degC for 48 hr; details: IFO 9185, 48 h
Bacillus subtilis [10] = assay: Antibacterial activity against Bacillus subtilis MTCC 441 assessed as growth arrest at 37 degC for 24 hr; details: MTCC 441, 24 h
[11] = test system: Ditylenchus myceliophagus; assay: Nematicidal activity against Ditylenchus myceliophagus assessed as immobility; details: read-out: LD50 (the source's name)
[12] = test system: Lysinibacillus sphaericus; assay: Antibacterial activity against Lysinibacillus sphaericus MTCC 11 assessed as inhibition zones at 300 ug/disk at 37 degC for 24 hr; details: MTCC 11, 24 h, read-out: IZ
Aspergillus fumigatus [13] = assay: Antifungal activity against Aspergillus fumigatus HIC 6094 assessed as growth inhibition at 37 degC for 48 hr; details: HIC 6094, 48 h
[14] = test system: Chromobacterium violaceum; assay: Antibacterial activity against Chromobacterium violaceum MTCC 2656 assessed as growth arrest at 37 degC for 24 hr; details: MTCC 2656, 24 h
[15] = test system: Chromobacterium violaceum; assay: Antibacterial activity against Chromobacterium violaceum MTCC 2656 assessed as inhibition zones at 300 ug/disk at 37 degC for 24 hr; details: MTCC 2656, 24 h, read-out: IZ
Candida albicans [16] = assay: Antifungal activity against Candida albicans ATCC 10231 assessed as growth inhibition at 37 degC for 48 hr; details: ATCC 10231, 48 h
[17] = test system: Trichophyton mentagrophytes; assay: Antifungal activity against Trichophyton mentagrophytes IFO 40996 assessed as growth inhibition at 37 degC for 48 hr; details: IFO 40996, 48 h
Trichophyton rubrum [18] = assay: Antifungal activity against Trichophyton rubrum IFO 9185 assessed as growth inhibition at 300 ug/disk at 37 degC for 48 hr; details: IFO 9185, 48 h, read-out: IZ
Aspergillus fumigatus [19] = assay: Antifungal activity against Aspergillus fumigatus HIC 6094 assessed as growth inhibition at 300 ug/disc at 37 degC for 48 hr; details: for zone of inhibition at 300 µg/disc: HIC 6094, 48 h, read-out: IZ
Bacillus subtilis [20] = assay: Antibacterial activity against Bacillus subtilis MTCC 441 assessed as inhibition zones at 300 ug/disk at 37 degC for 24 hr; details: MTCC 441, 24 h, read-out: IZ
Caenorhabditis elegans = assay: Nematicidal activity against Caenorhabditis elegans assessed as immobility; details: read-out: LD50 (the source's name)
Staphylococcus aureus [21] = assay: Antibacterial activity against Staphylococcus aureus MTCC 96 assessed as inhibition zones at 300 ug/disc at 37 degC for 24 hr; details: MTCC 96, 24 h, read-out: IZ
Pseudomonas aeruginosa [22] = assay: Antibacterial activity against Pseudomonas aeruginosa MTCC 741 assessed as inhibition zones at 100 ug/disk at 37 degC for 24 hr; details: MTCC 741, 24 h, read-out: IZ
Staphylococcus aureus [23] = assay: Antibacterial activity against Staphylococcus aureus MTCC 96 assessed as inhibition zones at 100 ug/disc at 37 degC for 24 hr; details: MTCC 96, 24 h, read-out: IZ
Klebsiella aerogenes [24] = assay: Antibacterial activity against Enterobacter aerogenes MTCC 39 assessed as inhibition zones at 100 ug/disk at 37 degC for 24 hr; details: MTCC 39, 24 h, read-out: IZ
[25] = test system: Chromobacterium violaceum; assay: Antibacterial activity against Chromobacterium violaceum MTCC 2656 assessed as inhibition zones at 100 ug/disk at 37 degC for 24 hr; details: MTCC 2656, 24 h, read-out: IZ
[26] = test system: Lysinibacillus sphaericus; assay: Antibacterial activity against Lysinibacillus sphaericus MTCC 11 assessed as inhibition zones at 100 ug/disk at 37 degC for 24 hr; details: MTCC 11, 24 h, read-out: IZ
Bacillus subtilis [27] = assay: Antibacterial activity against Bacillus subtilis MTCC 441 assessed as inhibition zones at 100 ug/disk at 37 degC for 24 hr; details: MTCC 441, 24 h, read-out: IZ

| Structure (SMILES) | zone of inhibition at 300 µg/disc (Klebsiella aerogenes [2]) [mm] | zone of inhibition at 300 µg/disc (Pseudomonas aeruginosa [3]) [mm] | MBC [5] [µg/mL] | MIC [5] [µg/mL] | MBC (Klebsiella aerogenes [6]) [µg/mL] | MIC (Klebsiella aerogenes [6]) [µg/mL] | MBC (Pseudomonas aeruginosa [7]) [µg/mL] | MIC (Pseudomonas aeruginosa [7]) [µg/mL] | MBC (Staphylococcus aureus [8]) [µg/mL] | MIC (Staphylococcus aureus [8]) [µg/mL] | MBC (Trichophyton rubrum [9]) [µg/mL] | MIC (Trichophyton rubrum [9]) [µg/mL] | MBC (Bacillus subtilis [10]) [µg/mL] | MIC (Bacillus subtilis [10]) [µg/mL] | LC50 [11] [µg/mL] | zone of inhibition at 300 µg/disc [12] [mm] | MBC (Aspergillus fumigatus [13]) [µg/mL] | MIC (Aspergillus fumigatus [13]) [µg/mL] | MBC [14] [µg/mL] | MIC [14] [µg/mL] | other results |
| --- | --- | --- | --- | --- | --- | --- | --- | --- | --- | --- | --- | --- | --- | --- | --- | --- | --- | --- | --- | --- | --- |
| COc1ccc(Cc2ccc(OC)c(C3SC4C(=NN(C)C4c4ccc(F)cc4)N3c3ccc(C)cc3)c2)cc1C1SC2C(=NN(C)C2c2ccc(F)cc2)N1c1ccc(C)cc1 (centres undefined) | 20 | 14 | 25.5 (≈ 29 µM) | 12.5 (≈ 14.2 µM) | 12.5 (≈ 14.2 µM) | 6.25 (≈ 7.11 µM) | 12.5 (≈ 14.2 µM) | 12.5 (≈ 14.2 µM) | 25 (≈ 28.4 µM) | 12.5 (≈ 14.2 µM) | 6.25 (≈ 7.11 µM) | 3.12 (≈ 3.55 µM) | 50 (≈ 56.9 µM) | 6.25 (≈ 7.11 µM) | 160 (≈ 182 µM) | 13 | 6.25 (≈ 7.11 µM) | 3.12 (≈ 3.55 µM) | 12.5 (≈ 14.2 µM) | 6.25 (≈ 7.11 µM) | zone of inhibition at 300 µg/disc [1]: 18 mm; zone of inhibition at 300 µg/disc (Candida albicans [4]): 20 mm; zone of inhibition at 300 µg/disc [15]: 18 mm; MBC (Candida albicans [16]): 3.12 µg/mL (≈ 3.55 µM); MIC (Candida albicans [16]): 3.12 µg/mL (≈ 3.55 µM); MBC [17]: 12.5 µg/mL (≈ 14.2 µM); MIC [17]: 6.25 µg/mL (≈ 7.11 µM); zone of inhibition at 300 µg/disc (Trichophyton rubrum [18]): 20 mm; zone of inhibition at 300 µg/disc (Aspergillus fumigatus [19]): 20 mm; zone of inhibition at 300 µg/disc (Bacillus subtilis [20]): 13 mm; LC50 (Caenorhabditis elegans): 200 µg/mL (≈ 228 µM); zone of inhibition at 300 µg/disc (Staphylococcus aureus [21]): 25 mm |
| COc1ccc(Cc2ccc(OC)c(C3SC4C(=NN(C(C)C)C4c4ccc(F)cc4)N3c3ccc([N+](=O)[O-])cc3)c2)cc1C1SC2C(=NN(C(C)C)C2c2ccc(F)cc2)N1c1ccc([N+](=O)[O-])cc1 (centres undefined) | 17 | 10 | 50 (≈ 50.1 µM) | 50 (≈ 50.1 µM) | 25 (≈ 25.1 µM) | 12.5 (≈ 12.5 µM) | 25 (≈ 25.1 µM) | 25 (≈ 25.1 µM) | 50 (≈ 50.1 µM) | 25 (≈ 25.1 µM) | 25 (≈ 25.1 µM) | 12.5 (≈ 12.5 µM) | 25 (≈ 25.1 µM) | 25 (≈ 25.1 µM) | 510 (≈ 511 µM) | 13 | 50 (≈ 50.1 µM) | 25 (≈ 25.1 µM) | 50 (≈ 50.1 µM) | 25 (≈ 25.1 µM) | inhibition zone (IZ) [1]: inactive; inhibition zone (IZ) (Candida albicans [4]): inactive; zone of inhibition at 300 µg/disc [15]: 15 mm; MBC (Candida albicans [16]): 25 µg/mL (≈ 25.1 µM); MIC (Candida albicans [16]): 25 µg/mL (≈ 25.1 µM); MBC [17]: 25 µg/mL (≈ 25.1 µM); MIC [17]: 12.5 µg/mL (≈ 12.5 µM); zone of inhibition at 300 µg/disc (Trichophyton rubrum [18]): 9 mm; inhibition zone (IZ) (Aspergillus fumigatus [19]): inactive; zone of inhibition at 300 µg/disc (Bacillus subtilis [20]): 18 mm; LC50 (Caenorhabditis elegans): 600 µg/mL (≈ 602 µM); zone of inhibition at 300 µg/disc (Staphylococcus aureus [21]): 23 mm |
| COc1ccc(Cc2ccc(OC)c(C3SC4C(=NN(C)C4c4ccc(F)cc4)N3c3ccc([N+](=O)[O-])cc3)c2)cc1C1SC2C(=NN(C)C2c2ccc(F)cc2)N1c1ccc([N+](=O)[O-])cc1 (centres undefined) | 19 | 12 | 25 (≈ 26.6 µM) | 12.5 (≈ 13.3 µM) | 25 (≈ 26.6 µM) | 12.5 (≈ 13.3 µM) | 12.5 (≈ 13.3 µM) | 12.5 (≈ 13.3 µM) | 25 (≈ 26.6 µM) | 12.5 (≈ 13.3 µM) | 25 (≈ 26.6 µM) | 12.5 (≈ 13.3 µM) | 6.25 (≈ 6.64 µM) | 6.25 (≈ 6.64 µM) | 180 (≈ 191 µM) | 20 | 25 (≈ 26.6 µM) | 12.5 (≈ 13.3 µM) | 12.5 (≈ 13.3 µM) | 12.5 (≈ 13.3 µM) | zone of inhibition at 300 µg/disc [1]: 14 mm; zone of inhibition at 300 µg/disc (Candida albicans [4]): 21 mm; zone of inhibition at 300 µg/disc [15]: 18 mm; MBC (Candida albicans [16]): 25 µg/mL (≈ 26.6 µM); MIC (Candida albicans [16]): 12.5 µg/mL (≈ 13.3 µM); MBC [17]: 25 µg/mL (≈ 26.6 µM); MIC [17]: 12.5 µg/mL (≈ 13.3 µM); zone of inhibition at 300 µg/disc (Trichophyton rubrum [18]): 15 mm; zone of inhibition at 300 µg/disc (Aspergillus fumigatus [19]): 14 mm; zone of inhibition at 300 µg/disc (Bacillus subtilis [20]): 16 mm; LC50 (Caenorhabditis elegans): 200 µg/mL (≈ 213 µM); zone of inhibition at 300 µg/disc (Staphylococcus aureus [21]): 21 mm |
| CN[C@@H]1[C@H](O[C@H]2[C@H](O[C@H]3[C@H](O)[C@@H](O)[C@H](N=C(N)N)[C@@H](O)[C@@H]3N=C(N)N)O[C@@H](C)[C@]2(O)C=O)O[C@@H](CO)[C@H](O)[C@H]1O [STREPTOMYCIN] | – | – | 25 (≈ 43 µM) | 6.25 (≈ 10.7 µM) | 6.25 (≈ 10.7 µM) | 1.56 (≈ 2.68 µM) | 6.25 (≈ 10.7 µM) | 1.56 (≈ 2.68 µM) | 12.5 (≈ 21.5 µM) | 6.25 (≈ 10.7 µM) | – | – | 12.5 (≈ 21.5 µM) | 6.25 (≈ 10.7 µM) | – | – | – | – | 6.25 (≈ 10.7 µM) | 3.12 (≈ 5.36 µM) | zone of inhibition at 100 µg/disc (Pseudomonas aeruginosa [22]): 15 mm; zone of inhibition at 100 µg/disc (Staphylococcus aureus [23]): 41 mm; zone of inhibition at 100 µg/disc (Klebsiella aerogenes [24]): 25 mm; zone of inhibition at 100 µg/disc [25]: 20 mm; zone of inhibition at 100 µg/disc [26]: 20 mm; zone of inhibition at 100 µg/disc (Bacillus subtilis [27]): 30 mm |
